Results taken from US20040220220A1, “Method for treating inflammatory bowel disease” (priority 2001, published 2004).
“And” between values parts separate entries of the source, which are not always exact repeats. Equal entries are not always repeated.

Experiments:
[1] = system: neutrophil, macrophages, T cell; conditions: at concentrations in the range obtained by targeted delivery; cited from earlier work
Human eosinophils [2] = experiment: IL-5 stimulated eosinophil degranulation, EDN release by DARIA; assay type: cell-based
Excerpt: FIG. 2 graphically depicts the effect of HCQ on IL-5 stimulated eosinophil degranulation as measured by release of eosinophil-derived neurotoxin. In this figure, EDN refers to eosinophil-derived neurotoxin.
(§1) Human eosinophils were isolated from atopic and non-atopic donors using density centrifugation and CD16-magnetic bead negative selection. Eosinophil purity was always>93%.
The general procedure described hereinabove and Example 1 was followed. Supernatants from superoxide assay samples were analyzed for EDN by Double-Antibody Radioimmunoassay (DARIA). The results are depicted in FIG. 2.

[3] = lupus erythematosus and rheumatoid arthritis; cited from earlier work
[4] = Single-dose intravenous HCQ pharmacokinetics in dogs; assay type: in vivo, Beagle dogs; conditions: for AUC(0-inf) / Cmax / AUC(0-t) / half-life / Tmax / Vd / clearance: both sexes, beagle, dog, whole blood; for AUC(0-inf) / Cmax / AUC(0-t) / Tmax / Vd / clearance: single day; for AUC(0-t): read-out: AUC0-23; for half-life: 2-compartment model, read-out: Apparent terminal t1/2 (converted)
Description: Two Beagle dogs per dose group (one M: one F) received hydroxychloroquine sulfate, USP as an intravenous bolus infusion over 30 minutes.
Following the single injection, blood samples were drawn at one, two, three, five, six, seven, eight, 12, 18, 24, 36, 120, 192, 264, 360, 528, 696, 864 and 1,032 hours.

[5] = Single-dose intravenous HCQ pharmacokinetics in rats; assay type: in vivo; conditions: for Tmax / Vd / clearance / half-life / AUC(0-inf) / Cmax / AUC(0-t): both sexes, rat, whole blood; for Tmax / Vd / clearance / AUC(0-inf) / Cmax / AUC(0-t): single day; for half-life: 2-compartment model, read-out: Apparent Terminal t1/2 (converted); for AUC(0-t): read-out: AUC0-23
Description: Twelve rats per dose group (six M: six F) received hydroxychloroquine sulfate, USP as an intravenous bolus injected over 30 minutes.
Following the single injection, blood samples were drawn from rat pairs at one, three, six, 12, 24, 36, 48, 192, 360, and 1,032 hours.

[6] = system: human tracheal epithelial cells; experiment: Pro-inflammatory mRNA in tracheal epithelial cultures infected with RV16, RT-PCR; assay type: cell-based; conditions: 50 microM HCQ, RV16 infection
Description: Differentiated cultures of human tracheal cells grown at an air liquid interface were pre-incubated for 12h with 50 microM HCQ prior to 12 h infection with human rhinovirus type 16 (HRV-16). Twelve hours after removal of virus, levels of mRNA for RANTES, ICAM-1, IL-1beta, TNF-alpha and IL-6 were quantified using multiplex two-step (TaqMan) RT-PCR. The results are depicted in FIGS. 6-10.
(§2) FIG. 6 graphically depicts the effects of HCQ on the release of RANTES (regulated on activation normal T-cell expressed and secreted) in cultured human tracheal epithelial cells. In the figure, RV16-p3 refers to the rhinovirus strain. Human tracheal epithelial cells were cultured for 14 days in serum-free growth media. On day 14, the cultures were divided into four groups. Two groups were pre-treated for 6 hours with HCQ (final concentration 50 microM) in media administered via the basolateral side. Then RV-16-p3 at a tissue culture infectious dose (TCID50) of 10^6/ml was added to one of groups receiving HCQ and one of thgroups not pretreated with HCQ. Phosphate buffered saline (PBS) was added to the other two groups, creating four conditions: media alone (control), HCQ alone, RV-16-p3 alone and RV-16-p3+HCQ. After six hours, the experimental suspensions were removed and the cells were washed three times with PBS. Cells were allowed to recover for 24h and then the mucosal surfaces of the culture inserts were flushed with 500 microL of PBS and the flushings were retained.
The filters containing the cell sheets were cut in half and placed in RLT buffer (Rneasy lysis buffer) or fixed in 10% buffered formalin prior to their preparation for fluorescence in situ hybridization (FISH) and gene expression analysis as described in detail elsewhere (Lopez-Souza N, et al., Resistance of differentiated human airway epithelium to infection by rhinovirus, Am J Physiol Lung Cell Mol Physiol, 2004;286:L373-81). Levels of mRNA for RANTES were determined in cell lysates using a two-step method of gene transcript profiling in which multiplex RT-PCR is combined with individual gene quantification via real-time PCR on generated cDNA product.
as §2, with “FIG. 7” for “FIG. 6”, “the upregulation” for “the release”, “of for intercellular adhision molecule 1 (ICAM-1)” for “of RANTES (regulated on activation normal T-cell expressed and secreted)”, “strain. ICAM refers to intracellular adhesion molecule 1.” for “strain.”, “of the groups” for “of thgroups”
FIG. 8 graphically depicts the effects of HCQ on the release of IL-1beta and TNF-alpha in cultured human tracheal epithelial cells. In the figure, RV16-p3 refers to the rhinovirus strain. IL-1 beta refers to Interleukin-1 beta. […]

leukocytes = conditions: ex vivo and in vitro experiments; cited from earlier work
[7] = system: Primary Human Epithelial Cells (tonsillar); experiment: IP-10/RANTES production in primary epithelial cells exposed to HRV-16; assay type: cell-based
Description: Primary cultures of harvested human tonsillar epithelial cells were preincubated for 24 hr with 50 microM HCQ. The cells were then exposed to human rhinovirus type 16 (HRV-16) which was left on the cells in the presence and absence of HCQ. Medium was recovered at two different time post infection (24 hr viral incubation and 48 hr viral incubation) and assayed for IP-10 and RANTES. The data is depicted in Table 1 below and in FIG. 5.

BEAS-2B epithelial cells = experiment: IP-10/RANTES production in BEAS-2B cells exposed to HRV-16; assay type: cell-based; conditions: 48 hr
Description: Cells of the BEAS-2B epithelial cell line were preincubated for either 6 hr or 24 hr with varying concentrations of HCQ. Cells were then exposed to human rhinovirus type 16 (HRV-16) which was left on the cells in the presence and absence of HCQ at the concentrations indicated for 48 hr. The data is depicted in Table 2 and FIG. 13.

Human eosinophils [8] = experiment: Eosinophil extracellular superoxide production (cytochrome c); assay type: cell-based; conditions: 1 hr pretreatment at 37° C.; IL-5 or PAF stimulus
Description: as §1
Statistical analyses were performed using the Student's paired t-test; significance defined as p value<0.05 compared to “nil” or 0.0 microM HCQ.
The general procedure described hereinabove was followed. Eosinophils were pretreated with HCQ for 1 hr at 37° C. and then stimulated as described in FIG. 1 in 96-well plates (50,000 cells/well). Extracellular superoxide was detected using cytochrome c and a 96-well plate reader.

[9] = asthma, oral HCQ; cited from earlier work
Human eosinophils [10] = experiment: IL-5 stimulated eosinophil survival by flow cytometry; assay type: cell-based; conditions: 100 pg/ml IL-5, four days, compared with dexamethasone
Description: as §1
Flow cytometry was performed on a Becton Dickenson FACScan. Data was analyzed using CellQuest software. For cell surface marker determination, specific antibodies directly conjugated with the fluorescent indicator, phycoerythrin (PE) were utilized.
The general procedure described hereinabove was followed. Eosinophils were incubated with 100 pg/ml IL-5 with or without dexamethasone or HCQ. After four days, eosinophil viability was measured by flow cytometry. The results are depicted in FIG. 3.

[11] = conventional oral doses 4-6 mg/kg/day, after 3 months therapy, two clinical trials; cited from earlier work
[12] = rats, intravenous, 10 mg/kg/day

For `CCN(CCO)CCCC(C)Nc1ccnc2cc(Cl)ccc12` (centres unmarked) [HCQ, hydroxychloroquine], the “neutrophil and macrophage superoxide release, macrophage release of TNF-alpha, IL-6, Interferon-gamma and T cell activation” value [1] is listed as “inhibited”, the “HCQ concentration at which eosinophil degranulation is inhibited” value (Human eosinophils [2]) is listed as greater than 100 µM and the onset of action [3] is listed as 3-4 months. The “peak whole blood concentrations” value [4] was “less than 3 mcg/ml”, the AUC(0-inf) ([4]; 5 mg/kg/day) was 24200 ng·h/mL and the Cmax ([4]; 5 mg/kg/day) was 1200 ng/mL. For the same compound, the AUC(0-t) ([4]; 5 mg/kg/day) was 8160 ng·h/mL, the AUC(0-inf) ([4]; 10 mg/kg/day) was 82100 ng·h/mL and the Cmax ([4]; 10 mg/kg/day) was 2700 ng/mL. It also gave an AUC(0-t) ([4]; 10 mg/kg/day) of 30900 ng·h/mL, a half-life ([4]; 5 mg/kg/day) of 20.8 h and a Tmax ([4]; 5 mg/kg/day) of 0.5 h. The Vd ([4]; 5 mg/kg/day) was 9.1 L/kg, the clearance ([4]; 5 mg/kg/day) was 5 mL/min/kg and the half-life ([4]; 10 mg/kg/day) was 35 h. The Tmax ([4]; 10 mg/kg/day) was 0.5 h, the Vd ([4]; 10 mg/kg/day) was 6.1 L/kg and the clearance ([4]; 10 mg/kg/day) was 1.67 mL/min/kg. For the same compound, the Tmax ([5]; rats, intravenous, 5 mg/kg/day) was 0.5 h, the Vd ([5]; rats, intravenous, 5 mg/kg/day) was 11.1 L/kg and the clearance ([5]; rats, intravenous, 5 mg/kg/day) was 20 mL/min/kg. For the same compound, the half-life ([5]; rats, intravenous, 5 mg/kg/day) was 7.5 h, the Tmax [5, 12] was 0.5 h and the Vd [5, 12] was 11.2 L/kg. The clearance [5, 12] was 21.7 mL/min/kg, the half-life [5, 12] was 7.4 h and the AUC(0-inf) ([5]; rats, intravenous, 5 mg/kg/day) was 6560 ng·h/mL. The Cmax ([5]; rats, intravenous, 5 mg/kg/day) was 1020 ng/mL, the AUC(0-t) ([5]; rats, intravenous, 5 mg/kg/day) was 4050 ng·h/mL and the AUC(0-inf) [5, 12] was 11000 ng·h/mL. For the same compound, the Cmax [5, 12] was 1740 ng/mL, the AUC(0-t) [5, 12] was 7220 ng·h/mL and the “peak concentrations as fraction of those required” value ([5]; rats and dogs, intravenous, versus concentrations needed for in vitro effects) was 1/100. For the same compound, the peak serum concentrations ([5]; rats, intravenous 10 mg/kg) was 2 µg/mL, the “release of IL-1beta” value [6] was “rapidly block” and the “release of IL-6” value [6] was “rapidly block”. The “release of IL-8” value [6] was “rapidly block”, the “release of TNF-alpha” value [6] was “rapidly block” and the “up-regulation of ICAM-1” value [6] was “rapidly block”. For the same compound, the “incubation time to effect on leukocytes” value (leukocytes) was “less than 1 hour”, the “IP-10: hrs of preincubation 24” value ([7]; HRV-16 + 50 microM HCQ, 24) was 31 pg/mL and the “IP-10: hrs of preincubation 48” value ([7]; HRV-16 + 50 microM HCQ, 48) was 112 pg/mL. The “RANTES: hrs of preincubation 48” value ([7]; HRV-16 + HCQ, 48) was 509 pg/mL, the “IP-10: 6 hrs preincubation” value (BEAS-2B epithelial cells; HRV-16 + 0.01 mM HCQ) was 3084 pg/mL and the “IP-10: 24 hrs preincubation” value (BEAS-2B epithelial cells; HRV-16 + 0.01 mM HCQ) was 2506 pg/mL. The “RANTES: 6 hrs preincubation” value (BEAS-2B epithelial cells; HRV-16 + 0.01 mM HCQ) was 3326 pg/mL, the “IP-10: 6 hrs preincubation” value (BEAS-2B epithelial cells; HRV-16 + 0.1 mM HCQ) was 2914 pg/mL and the “IP-10: 24 hrs preincubation” value (BEAS-2B epithelial cells; HRV-16 + 0.1 mM HCQ) was 1814 pg/mL. The “RANTES: 6 hrs preincubation” value (BEAS-2B epithelial cells; HRV-16 + 0.1 mM HCQ) was 3128 pg/mL, the “IP-10: 6 hrs preincubation” value (BEAS-2B epithelial cells; HRV-16 + 1 mM HCQ) was 3045 pg/mL and the “IP-10: 24 hrs preincubation” value (BEAS-2B epithelial cells; HRV-16 + 1 mM HCQ) was 2098 pg/mL. The “RANTES: 6 hrs preincubation” value (BEAS-2B epithelial cells; HRV-16 + 1 mM HCQ) was 1994 pg/mL, the “IP-10: 6 hrs preincubation” value (BEAS-2B epithelial cells; HRV-16 + 50 mM HCQ) was 31 pg/mL and the “IP-10: 24 hrs preincubation” value (BEAS-2B epithelial cells; HRV-16 + 50 mM HCQ) was 31 pg/mL. The “RANTES: 6 hrs preincubation” value (BEAS-2B epithelial cells; HRV-16 + 50 mM HCQ) was 0 pg/mL, the “HCQ concentration at which IL-5 or PAF induced eosinophil superoxide is inhibited” value (Human eosinophils [8]) was “at least 0.5 mM and ≥ 200 mcg/ml” and the “treatment time before therapeutic effect begins” value [9] was 24-26 weeks. For the same compound, the eosinophil survival (Human eosinophils [10]) was “actively shortens eosinophil survival, to a much greater extent than a comparative dose of dexamethasone” and the “therapeutic benefit in IBD” value [11] was “in neither was a consistent therapeutic benefit evident”.
